Measurements published in the supplement of paper PMC10307832.

What follows are cell lines tested with C1=CC2=C(C=C(C(=C2N=C1)O)N=NC3=CC4=C(C=C3)C=C(C=C4)S(=O)(=O)O)S(=O)(=O)O + Cc1nc(Nc2ncc(C(=O)Nc3c(C)cccc3Cl)s2)cc(N2CCN(CCO)CC2)n1 [Dasatinib] (partner 0.075 µM) (assay: relative viability (nuclei count vs DMSO), 5 days (fraction); higher = more cells survive). Settings: first compound 8 µM.
Summary of the method: (§1)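 Nuclei were stained with Hoechst during a one-step fixation (final 0.05% Triton X-100, 1% formaldehyde, 1 ug/ml Hoechst) carried out 5 days after dosing, then counted on 4× images. The cells, lung cancer lines in 1536-well plates, had been dosed by pin tool the day after seeding with one drug alone or a fixed anchor-drug dose plus five library-drug doses (not always all listed) in √10 steps. Relative viability is the nuclei count in treated wells divided by that in vehicle wells, and each value is the median of duplicate plates.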

Cell Line | relative viability
NCI-H1755 | 0.536
NCI-H2023 | 0.541
HCC-15 | 0.624
NCI-H1793 | 0.372
PC-14 | 0.281
EKVX | 0.633
LC-2-ad | 0.687
NCI-H1944 | 0.206
NCI-H1975 | 0.388

These cell lines were tested with C1=CC2=C(C=C(C(=C2N=C1)O)N=NC3=CC4=C(C=C3)C=C(C=C4)S(=O)(=O)O)S(=O)(=O)O + CCNC(=O)c1noc(-c2cc(C(C)C)c(O)cc2O)c1-c1ccc(CN2CCOCC2)cc1 [Luminespib] (partner 0.01 µM) in the same assay as above. Settings: first compound 0.08 µM.
Summary of the method: as §1

Cell Line | relative viability
NCI-H322M | 1.04
LCLC-97TM1 | 0.963
NCI-H2009 | 1.08
A-427 | 0.891
NCI-H441 | 0.454
NCI-H661 | 0.932
NCI-H1734 | 0.166
NCI-H460 | 0.0298
NCI-H2347 | 0.77
SK-LU-1 | 0.175
NCI-H1395 | 0.851
201T | 1.09
NCI-H1915 | 0.842
HCC-827 | 0.859
LXF-289 | 0.788
NCI-H23 | 0.202
NCI-H647 | 0.138

Cell Line | relative viability
CAL-12T | 0.466
NCI-H1651 | 1.25
EPLC-272H | 0.264
NCI-H2228 | 0.136
NCI-H1355 | 0.737
NCI-H3122 | 0.0606
NCI-H1437 | 1.21
NCI-H1755 | 0.431
NCI-H2023 | 0.87
HCC-15 | 0.345
NCI-H1793 | 0.22
PC-14 | 0.141
EKVX | 0.875
LC-2-ad | 0.989
NCI-H1944 | 0.826
NCI-H1975 | 0.194

Same assay, conditions: first compound 0.253 µM

Cell Line | relative viability
NCI-H322M | 0.828
LCLC-97TM1 | 0.678
NCI-H2009 | 0.995
A-427 | 0.823
NCI-H441 | 0.323
NCI-H661 | 0.887
NCI-H1734 | 0.182
NCI-H460 | 0.032
NCI-H2347 | 0.523
SK-LU-1 | 0.203
NCI-H1395 | 0.859
201T | 1.09
NCI-H1915 | 0.773
HCC-827 | 0.576
LXF-289 | 0.645
NCI-H23 | 0.21
NCI-H647 | 0.241

Cell Line | relative viability
CAL-12T | 0.519
NCI-H1651 | 0.869
EPLC-272H | 0.385
NCI-H2228 | 0.13
NCI-H1355 | 0.735
NCI-H3122 | 0.111
NCI-H1437 | 1.11
NCI-H1755 | 0.378
NCI-H2023 | 0.741
HCC-15 | 0.383
NCI-H1793 | 0.189
PC-14 | 0.139
EKVX | 0.87
LC-2-ad | 1.04
NCI-H1944 | 0.696
NCI-H1975 | 0.2

Same assay, conditions: first compound 0.8 µM

Cell Line | relative viability
NCI-H322M | 0.859
LCLC-97TM1 | 0.714
NCI-H2009 | 1.04
A-427 | 0.851
NCI-H441 | 0.428
NCI-H661 | 0.847
NCI-H1734 | 0.236
NCI-H460 | 0.13
NCI-H2347 | 0.36
SK-LU-1 | 0.208
NCI-H1395 | 0.806
201T | 1.04
NCI-H1915 | 0.877
HCC-827 | 0.592
LXF-289 | 0.73
NCI-H647 | 0.215

Cell Line | relative viability
CAL-12T | 0.616
NCI-H1651 | 0.877
EPLC-272H | 0.388
NCI-H2228 | 0.134
NCI-H1355 | 0.646
NCI-H3122 | 0.0925
NCI-H1437 | 1.13
NCI-H1755 | 0.395
NCI-H2023 | 0.788
HCC-15 | 0.304
NCI-H1793 | 0.184
PC-14 | 0.152
EKVX | 0.848
LC-2-ad | 1.05
NCI-H1944 | 0.802
NCI-H1975 | 0.206

Same assay, conditions: first compound 2.53 µM

Cell Line | relative viability
NCI-H322M | 0.847
LCLC-97TM1 | 0.805
NCI-H2009 | 1.14
A-427 | 1.04
NCI-H441 | 0.363
NCI-H661 | 0.945
NCI-H1734 | 0.182
NCI-H460 | 0.022
NCI-H2347 | 0.824
SK-LU-1 | 0.209
NCI-H1395 | 0.701
201T | 1.09
NCI-H1915 | 0.78
HCC-827 | 0.693
LXF-289 | 0.681
NCI-H23 | 0.194
NCI-H647 | 0.276

Cell Line | relative viability
CAL-12T | 0.207
NCI-H1651 | 0.86
EPLC-272H | 0.283
NCI-H2228 | 0.166
NCI-H1355 | 0.68
NCI-H3122 | 0.0947
NCI-H1437 | 1.16
NCI-H1755 | 0.41
NCI-H2023 | 0.914
HCC-15 | 0.428
NCI-H1793 | 0.264
PC-14 | 0.148
EKVX | 0.888
LC-2-ad | 1.1
NCI-H1944 | 0.741
NCI-H1975 | 0.264

Same assay, conditions: first compound 8 µM

Cell Line | relative viability
NCI-H322M | 1.12
LCLC-97TM1 | 0.801
NCI-H2009 | 0.623
A-427 | 0.727
NCI-H441 | 0.278
NCI-H661 | 0.849
NCI-H1734 | 0.193
NCI-H460 | 0.0231
NCI-H2347 | 0.317
SK-LU-1 | 0.175
NCI-H1395 | 0.786
201T | 1.04
NCI-H1915 | 0.82
HCC-827 | 0.683
LXF-289 | 0.642
NCI-H23 | 0.209
NCI-H647 | 0.135
